From PubChem BioAssay (NCI)
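Cultured in 96-well plates, cells were exposed to test compound for 48 hours across five concentrations. Here, GI50 denotes the concentration required for 50% inhibition of growth. TGI: total growth inhibition.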

Legend:
Assay in all cases: NCI-60 cell line screen, 48 h
786-0 renal = test system: 786-0 renal
A498 renal = test system: A498 renal
A549 NSCLC = test system: A549 NSCLC
ACHN renal = test system: ACHN renal
BT-549 breast = test system: BT-549 breast
CAKI-1 renal = test system: CAKI-1 renal
CCRF-CEM leukemia = test system: CCRF-CEM leukemia
COLO 205 colon = test system: COLO 205 colon
DU-145 prostate = test system: DU-145 prostate
EKVX NSCLC = test system: EKVX NSCLC
HCC-2998 colon = test system: HCC-2998 colon
HCT-15 colon = test system: HCT-15 colon
HL-60(TB) leukemia = test system: HL-60(TB) leukemia
HOP-62 NSCLC = test system: HOP-62 NSCLC
HOP-92 NSCLC = test system: HOP-92 NSCLC
HT29 colon = test system: HT29 colon
IGROV1 ovarian = test system: IGROV1 ovarian
K-562 leukemia = test system: K-562 leukemia
KM12 colon = test system: KM12 colon
LOX IMVI melanoma = test system: LOX IMVI melanoma
M14 melanoma = test system: M14 melanoma
MALME-3M melanoma = test system: MALME-3M melanoma
MCF7 breast = test system: MCF7 breast
MDA-MB-231 breast = test system: MDA-MB-231 breast
MDA-MB-435 = test system: MDA-MB-435
MOLT-4 leukemia = test system: MOLT-4 leukemia
NCI-H226 lung = test system: NCI-H226 lung
NCI-H23 lung = test system: NCI-H23 lung
NCI-H460 lung = test system: NCI-H460 lung
NCI-H522 lung = test system: NCI-H522 lung
NCI/ADR-RES ovarian = test system: NCI/ADR-RES ovarian
OVCAR-3 ovarian = test system: OVCAR-3 ovarian
OVCAR-4 ovarian = test system: OVCAR-4 ovarian
OVCAR-5 ovarian = test system: OVCAR-5 ovarian
OVCAR-8 ovarian = test system: OVCAR-8 ovarian
PC-3 prostate = test system: PC-3 prostate
SF-268 CNS = test system: SF-268 CNS
SF-295 CNS = test system: SF-295 CNS
SF-539 CNS = test system: SF-539 CNS
SK-MEL-2 melanoma = test system: SK-MEL-2 melanoma
SK-MEL-28 melanoma = test system: SK-MEL-28 melanoma
SK-MEL-5 melanoma = test system: SK-MEL-5 melanoma
SK-OV-3 ovarian = test system: SK-OV-3 ovarian
SN12C renal = test system: SN12C renal
SNB-19 CNS = test system: SNB-19 CNS
SNB-75 CNS = test system: SNB-75 CNS
SR leukemia = test system: SR leukemia
SW-620 colon = test system: SW-620 colon
T-47D breast = test system: T-47D breast
TK-10 renal = test system: TK-10 renal
U251 CNS = test system: U251 CNS
UACC-257 melanoma = test system: UACC-257 melanoma
UACC-62 melanoma = test system: UACC-62 melanoma
UO-31 renal = test system: UO-31 renal

In the case of `CN1CCN(c2ccc(Nc3nc(NCCCNS(=O)(=O)c4ccc(C(F)(F)F)cc4)c4sccc4n3)cc2)CC1`, the GI50 (786-0 renal) is reported as 1.93 µM, the TGI (786-0 renal) is reported as 3.79 µM and the GI50 (A498 renal) is reported as 2.16 µM. The TGI (A498 renal) was 3.99 µM, the GI50 (A549 NSCLC) was 3.71 µM and the TGI (A549 NSCLC) was 21.5 µM. The GI50 (ACHN renal) was 2.69 µM, the TGI (ACHN renal) was 7.44 µM and the GI50 (BT-549 breast) was 1.86 µM. For the same compound, the TGI (BT-549 breast) was 3.68 µM, the GI50 (CAKI-1 renal) was 3.05 µM and the TGI (CAKI-1 renal) was 11.3 µM. It also gave a GI50 (CCRF-CEM leukemia) of 3.42 µM, a TGI (CCRF-CEM leukemia) of 17 µM and a GI50 (COLO 205 colon) of 2.09 µM. It also gave a TGI (COLO 205 colon) of 4.12 µM, a GI50 (DU-145 prostate) of 5.11 µM and a TGI (DU-145 prostate) of 16.8 µM. The GI50 (EKVX NSCLC) was 3.73 µM, the TGI (EKVX NSCLC) was 14.6 µM and the GI50 (HCC-2998 colon) was 1.98 µM. It also gave a TGI (HCC-2998 colon) of 3.98 µM, a GI50 (HCT-15 colon) of 1.58 µM and a TGI (HCT-15 colon) of 3.08 µM. For the same compound, the GI50 (HL-60(TB) leukemia) was 1.78 µM, the TGI (HL-60(TB) leukemia) was 3.87 µM and the GI50 (HOP-62 NSCLC) was 2.6 µM. It also gave a TGI (HOP-62 NSCLC) of 7.74 µM, a GI50 (HOP-92 NSCLC) of 1.91 µM and a TGI (HOP-92 NSCLC) of 6.29 µM. It also gave a GI50 (HT29 colon) of 2.11 µM, a TGI (HT29 colon) of 4.89 µM and a GI50 (IGROV1 ovarian) of 2.38 µM. The TGI (IGROV1 ovarian) was 6.9 µM, the GI50 (K-562 leukemia) was 1.84 µM and the TGI (K-562 leukemia) was 5.52 µM. It also gave a GI50 (KM12 colon) of 4.3 µM, a TGI (KM12 colon) of 20.9 µM and a GI50 (LOX IMVI melanoma) of 1.64 µM. The TGI (LOX IMVI melanoma) was 3.02 µM, the GI50 (M14 melanoma) was 1.89 µM and the TGI (M14 melanoma) was 3.59 µM. The GI50 (MALME-3M melanoma) was 1.72 µM, the TGI (MALME-3M melanoma) was 3.13 µM and the GI50 (MCF7 breast) was 1.74 µM. For the same compound, the TGI (MCF7 breast) was 3.32 µM, the GI50 (MDA-MB-231 breast) was 1.88 µM and the TGI (MDA-MB-231 breast) was 3.51 µM. For the same compound, the GI50 (MDA-MB-435) was 1.79 µM, the TGI (MDA-MB-435) was 3.24 µM and the GI50 (MOLT-4 leukemia) was 2.13 µM. The TGI (MOLT-4 leukemia) was 7.32 µM, the GI50 (NCI-H226 lung) was 9.09 µM and the TGI (NCI-H226 lung) was 35 µM. The GI50 (NCI-H23 lung) was 3.41 µM, the TGI (NCI-H23 lung) was 11.5 µM and the GI50 (NCI-H460 lung) was 2.28 µM. It also gave a TGI (NCI-H460 lung) of 4.75 µM, a GI50 (NCI-H522 lung) of 1.77 µM and a TGI (NCI-H522 lung) of 3.7 µM. For the same compound, the GI50 (NCI/ADR-RES ovarian) was 3.17 µM, the TGI (NCI/ADR-RES ovarian) was 11.2 µM and the GI50 (OVCAR-3 ovarian) was 2.74 µM. The TGI (OVCAR-3 ovarian) was 6.89 µM, the GI50 (OVCAR-4 ovarian) was 2.62 µM and the TGI (OVCAR-4 ovarian) was 8.12 µM. For the same compound, the GI50 (OVCAR-5 ovarian) was 3.26 µM, the TGI (OVCAR-5 ovarian) was 13.4 µM and the GI50 (OVCAR-8 ovarian) was 3.58 µM. It also gave a TGI (OVCAR-8 ovarian) of 21.8 µM, a GI50 (PC-3 prostate) of 4.27 µM and a TGI (PC-3 prostate) of 20.2 µM. It also gave a GI50 (SF-268 CNS) of 2.39 µM, a TGI (SF-268 CNS) of 9.5 µM and a GI50 (SF-295 CNS) of 1.81 µM. It also gave a TGI (SF-295 CNS) of 3.51 µM, a GI50 (SF-539 CNS) of 1.68 µM and a TGI (SF-539 CNS) of 3.05 µM. It also gave a GI50 (SK-MEL-2 melanoma) of 1.78 µM, a TGI (SK-MEL-2 melanoma) of 3.46 µM and a GI50 (SK-MEL-28 melanoma) of 1.63 µM. It also gave a TGI (SK-MEL-28 melanoma) of 3.02 µM, a GI50 (SK-MEL-5 melanoma) of 1.78 µM and a TGI (SK-MEL-5 melanoma) of 3.2 µM. It also gave a GI50 (SK-OV-3 ovarian) of 12.7 µM, a TGI (SK-OV-3 ovarian) of 27.4 µM and a GI50 (SN12C renal) of 2.22 µM. The TGI (SN12C renal) was 6.02 µM, the GI50 (SNB-19 CNS) was 3.6 µM and the TGI (SNB-19 CNS) was 12.9 µM. The GI50 (SNB-75 CNS) was 14.5 µM, the TGI (SNB-75 CNS) was 28 µM and the GI50 (SR leukemia) was 2.06 µM. It also gave a TGI (SR leukemia) of 6.39 µM, a GI50 (SW-620 colon) of 1.89 µM and a TGI (SW-620 colon) of 3.58 µM. It also gave a GI50 (T-47D breast) of 1.89 µM, a TGI (T-47D breast) of 4.09 µM and a GI50 (TK-10 renal) of 2.78 µM. For the same compound, the TGI (TK-10 renal) was 8.39 µM, the GI50 (U251 CNS) was 2.62 µM and the TGI (U251 CNS) was 7.06 µM. It also gave a GI50 (UACC-257 melanoma) of 1.92 µM, a TGI (UACC-257 melanoma) of 3.77 µM and a GI50 (UACC-62 melanoma) of 1.68 µM. For the same compound, the TGI (UACC-62 melanoma) was 3.11 µM, the GI50 (UO-31 renal) was 1.69 µM and the TGI (UO-31 renal) was 3.68 µM.
